This note sets out measurements from ChEMBL document CHEMBL1125330, “N-substituted pyrazino[2,3-c][1,2,6]thiadiazine 2,2-dioxides. A new class of diuretics” (J Med Chem, 1992).

For the series, the species on record is Rattus norvegicus. Nature of the series: Mean sodium excretion in rats (Control/Drug treatment value); value 0.42/0.65. The class given is ADME, organism-based. As to conditions: in vivo.

`CCCc1nc2c(nc1C)C(N)=NS(=O)(=O)N2CC`: the Na amounted to 1.5.
